Measurements published in PubChem BioAssay AID1963435 (Molecular Pharmacology Branch, DTP, NCI, 2024).

Test system: PANC-1 complex spheroid growth, percent test/control
Assay: Anticancer human tumor PANC-1 cell line growth inhibition [Asc];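 further: spheroids exposed to agents for 7 days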;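 on viability, T/C: percent viability relative to DMSO vehicle wells taken as 100%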
Details: for IC50: curve of first compound; for viability, T/C: stronger effect = lower value; active means viability on the fitted dose curve at most 10% of control; inactive means the rest
In short: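 Tumor cells were grown as complex spheroids with human endothelial cells (HUVEC) and human mesenchymal stem cells as stroma. Agents were tested alone and in combination, in half-log steps down from the clinical Cmax, or from 10 microM where Cmax was unknown.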

NC(=O)C(=Cn1cnc(-c2cc(C(F)(F)F)cc(C(F)(F)F)c2)n1)c1cncnc1 + CNC(C)C(=O)NC1CN(S(=O)(=O)c2cccc(S(=O)(=O)N3CCC4CCC(C(=O)NC(c5ccccc5)c5ccccc5)N4C(=O)C(NC(=O)C(C)NC)C3)c2)CCC2CCC(C(=O)NC(c3ccccc3)c3ccccc3)N2C1=O
> 300 nM: IC50 (second compound 0.00316 µM) | IC50 (second compound 0.01 µM) | IC50 (second compound 0.0316 µM) | IC50 (second compound 0.1 µM) | IC50 (second compound 0.316 µM) | IC50 (second compound 1 µM)
inactive: viability, T/C (second compound 0.00316 µM, first compound 0.000949 µM) 103% | viability, T/C (second compound 0.00316 µM, first compound 0.003 µM) 80.5% | viability, T/C (second compound 0.00316 µM, first compound 0.00949 µM) 90.2% | viability, T/C (second compound 0.00316 µM, first compound 0.03 µM) 91.6% | viability, T/C (second compound 0.00316 µM, first compound 0.0949 µM) 102% | viability, T/C (second compound 0.00316 µM, first compound 0.3 µM) 95.3% | viability, T/C (second compound 0.01 µM, first compound 0.000949 µM) 87% | viability, T/C (second compound 0.01 µM, first compound 0.003 µM) 89.9% | viability, T/C (second compound 0.01 µM, first compound 0.00949 µM) 89.3% | viability, T/C (second compound 0.01 µM, first compound 0.03 µM) 87.6% | viability, T/C (second compound 0.01 µM, first compound 0.0949 µM) 95.3% | viability, T/C (second compound 0.01 µM, first compound 0.3 µM) 85.2% | viability, T/C (second compound 0.0316 µM, first compound 0.000949 µM) 82% | viability, T/C (second compound 0.0316 µM, first compound 0.003 µM) 91.4% | viability, T/C (second compound 0.0316 µM, first compound 0.00949 µM) 83.3% | viability, T/C (second compound 0.0316 µM, first compound 0.03 µM) 81% | viability, T/C (second compound 0.0316 µM, first compound 0.0949 µM) 90.5% | viability, T/C (second compound 0.0316 µM, first compound 0.3 µM) 78.3% | viability, T/C (second compound 0.1 µM, first compound 0.000949 µM) 84% | viability, T/C (second compound 0.1 µM, first compound 0.003 µM) 83.1% | viability, T/C (second compound 0.1 µM, first compound 0.00949 µM) 79.9% | viability, T/C (second compound 0.1 µM, first compound 0.03 µM) 91.3% | viability, T/C (second compound 0.1 µM, first compound 0.0949 µM) 102% | viability, T/C (second compound 0.1 µM, first compound 0.3 µM) 80.5% | viability, T/C (second compound 0.316 µM, first compound 0.000949 µM) 89.2% | viability, T/C (second compound 0.316 µM, first compound 0.003 µM) 78% | viability, T/C (second compound 0.316 µM, first compound 0.00949 µM) 79.2% | viability, T/C (second compound 0.316 µM, first compound 0.03 µM) 81.5% | viability, T/C (second compound 0.316 µM, first compound 0.0949 µM) 103% | viability, T/C (second compound 0.316 µM, first compound 0.3 µM) 71.9% | viability, T/C (second compound 1 µM, first compound 0.000949 µM) 78.3% | viability, T/C (second compound 1 µM, first compound 0.003 µM) 90.7% | viability, T/C (second compound 1 µM, first compound 0.00949 µM) 79.7% | viability, T/C (second compound 1 µM, first compound 0.03 µM) 85.3% | viability, T/C (second compound 1 µM, first compound 0.0949 µM) 88.8% | viability, T/C (second compound 1 µM, first compound 0.3 µM) 66.7%

CCN1CCN(Cc2ccc(Nc3ncc(F)c(-c4cc(F)c5nc(C)n(C(C)C)c5c4)n3)nc2)CC1 + CNC(C)C(=O)NC1CN(S(=O)(=O)c2cccc(S(=O)(=O)N3CCC4CCC(C(=O)NC(c5ccccc5)c5ccccc5)N4C(=O)C(NC(=O)C(C)NC)C3)c2)CCC2CCC(C(=O)NC(c3ccccc3)c3ccccc3)N2C1=O
> 1000 nM: IC50 (second compound 0.00316 µM) | IC50 (second compound 0.01 µM) | IC50 (second compound 0.0316 µM) | IC50 (second compound 0.1 µM) | IC50 (second compound 0.316 µM) | IC50 (second compound 1 µM)
inactive: viability, T/C (second compound 0.00316 µM, first compound 0.00316 µM) 119% | viability, T/C (second compound 0.00316 µM, first compound 0.01 µM) 108% | viability, T/C (second compound 0.00316 µM, first compound 0.0316 µM) 105% | viability, T/C (second compound 0.00316 µM, first compound 0.1 µM) 117% | viability, T/C (second compound 0.00316 µM, first compound 0.316 µM) 129% | viability, T/C (second compound 0.00316 µM, first compound 1 µM) 143% | viability, T/C (second compound 0.01 µM, first compound 0.00316 µM) 95.1% | viability, T/C (second compound 0.01 µM, first compound 0.01 µM) 96.8% | viability, T/C (second compound 0.01 µM, first compound 0.0316 µM) 108% | viability, T/C (second compound 0.01 µM, first compound 0.1 µM) 116% | viability, T/C (second compound 0.01 µM, first compound 0.316 µM) 124% | viability, T/C (second compound 0.01 µM, first compound 1 µM) 127% | viability, T/C (second compound 0.0316 µM, first compound 0.00316 µM) 96% | viability, T/C (second compound 0.0316 µM, first compound 0.01 µM) 101% | viability, T/C (second compound 0.0316 µM, first compound 0.0316 µM) 107% | viability, T/C (second compound 0.0316 µM, first compound 0.1 µM) 112% | viability, T/C (second compound 0.0316 µM, first compound 0.316 µM) 116% | viability, T/C (second compound 0.0316 µM, first compound 1 µM) 136% | viability, T/C (second compound 0.1 µM, first compound 0.00316 µM) 102% | viability, T/C (second compound 0.1 µM, first compound 0.01 µM) 102% | viability, T/C (second compound 0.1 µM, first compound 0.0316 µM) 102% | viability, T/C (second compound 0.1 µM, first compound 0.1 µM) 97.4% | viability, T/C (second compound 0.1 µM, first compound 0.316 µM) 107% | viability, T/C (second compound 0.1 µM, first compound 1 µM) 118% | viability, T/C (second compound 0.316 µM, first compound 0.00316 µM) 92.2% | viability, T/C (second compound 0.316 µM, first compound 0.01 µM) 91.8% | viability, T/C (second compound 0.316 µM, first compound 0.0316 µM) 109% | viability, T/C (second compound 0.316 µM, first compound 0.1 µM) 105% | viability, T/C (second compound 0.316 µM, first compound 0.316 µM) 118% | viability, T/C (second compound 0.316 µM, first compound 1 µM) 129% | viability, T/C (second compound 1 µM, first compound 0.00316 µM) 98.2% | viability, T/C (second compound 1 µM, first compound 0.01 µM) 98.2% | viability, T/C (second compound 1 µM, first compound 0.0316 µM) 99.5% | viability, T/C (second compound 1 µM, first compound 0.1 µM) 96.5% | viability, T/C (second compound 1 µM, first compound 0.316 µM) 109% | viability, T/C (second compound 1 µM, first compound 1 µM) 113%
